Measured values taken from PMC12250302, “Synthesis, Antimicrobial Activities, and Model of Action of Novel Tetralone Derivatives Containing Aminoguanidinium Moiety” (International Journal of Molecular Sciences, 2025).
Converted amounts (≈) assume the structure as drawn.

How the values were obtained:
Experiment in all cases: MIC and MBC testing, broth microdilution
[1] = system: E. faecium ATCC 35667; format: cell-based, Enterococcus faecium; settings: Enterococcus faecium, ATCC35667, E. faecium ATCC 35667; for MIC: 18 h, read-out: MIC; for MBC: read-out: MBC
Source text: (§1) The minimum inhibitory concentrations (MICs) and minimum bactericidal concentrations (MBCs) of the synthesized compounds effective against ESKAPE strains, S. aureus clinical isolates, and MRSA were investigated by the broth dilution method. Levofloxacin is a broad-spectrum antibacterial agent that is widely used in the treatment of ESKAPE infections. Therefore, levofloxacin was selected as the positive control for the preliminary activity screening. DMSO (0.1%) was selected as the negative control.
(§2) The minimum inhibitory concentration (MIC) of all synthesized compounds was tested by the broth microdilution method. In brief, compounds dissolved in DMSO were diluted twice continuously in a 96-well plate with MH broth. The ESKAPE pathogens (E. coli ATCC 25922, S. aureus ATCC 29213, K. pneumoniae ATCC 700603, A. baumannii ATCC 19606, P. aeruginosa ATCC 27853, and E. faecium ATCC 35667), clinical S. aureus isolates (LMY45, LMY46, LMY47, and LMY48) and methicillin-resistant Staphylococcus aureus (MRSA-1 and MRSA-2) were cultured in MH broth to logarithmic growth phase and then diluted to 1 × 10^6 CFU/mL in MH broth. Subsequently, the diluted bacterial solution was mixed with the diluted compound solution in a 96-well plate and incubated at 37 °C for a duration of 18 h. The MIC of the compounds was recorded as the lowest concentration at which no visible growth was observed. […] Each concentration was replicated thrice.

[2] = system: S. aureus ATCC 29213; format: cell-based, Staphylococcus aureus; settings: Staphylococcus aureus, ATCC29213, S. aureus ATCC 29213; for MIC: 18 h, read-out: MIC; for MBC: read-out: MBC
Source text: as §1, §2

[3] = system: K. pneumoniae ATCC 700603; format: cell-based, Klebsiella pneumoniae; settings: Klebsiella pneumoniae; for MIC: ATCC700603, 18 h, read-out: MIC; for MBC: ATCC700603, read-out: MBC
Source text: as §1, §2

[4] = system: A. baumannii ATCC 19606; format: cell-based, Acinetobacter baumannii; settings: Acinetobacter baumannii; for MIC: ATCC19606, 18 h, read-out: MIC; for MBC: ATCC19606, read-out: MBC
Source text: as §1, §2

[5] = system: P. aeruginosa ATCC 27853; format: cell-based, Pseudomonas aeruginosa; settings: Pseudomonas aeruginosa; for MIC: ATCC27853, 18 h, read-out: MIC; for MBC: ATCC27853, read-out: MBC
Source text: as §1, §2

[6] = system: E. coli ATCC 25922; format: cell-based, Escherichia coli; settings: Escherichia coli; for MIC: ATCC25922, 18 h, read-out: MIC; for MBC: ATCC25922, read-out: MBC
Source text: as §1, §2

[7] = system: MRSA-1; format: cell-based, Staphylococcus aureus; settings: Staphylococcus aureus, MRSA-1; for MIC: 18 h, read-out: MIC; for MBC: read-out: MBC
Experimental: (§3) Furthermore, the MBC values of the compounds were detected.
as §2, with “h.” for “h. The MIC of the compounds was recorded as the lowest concentration at which no visible growth was observed.”

[8] = system: MRSA-2; format: cell-based, Staphylococcus aureus; settings: Staphylococcus aureus, MRSA-2; for MIC: 18 h, read-out: MIC; for MBC: read-out: MBC
Experimental: as §3
as §2, with “h.” for “h. The MIC of the compounds was recorded as the lowest concentration at which no visible growth was observed.”

[9] = system: clinical S. aureus isolate LMY45; format: cell-based, Staphylococcus aureus; settings: Staphylococcus aureus, LMY45; for MIC: 18 h, read-out: MIC; for MBC: read-out: MBC
Experimental: as §3
as §2, with “h.” for “h. The MIC of the compounds was recorded as the lowest concentration at which no visible growth was observed.”

[10] = system: clinical S. aureus isolate LMY46; format: cell-based, Staphylococcus aureus; settings: Staphylococcus aureus, LMY46; for MIC: 18 h, read-out: MIC; for MBC: read-out: MBC
Experimental: as §3
as §2, with “h.” for “h. The MIC of the compounds was recorded as the lowest concentration at which no visible growth was observed.”

[11] = system: clinical S. aureus isolate LMY47; format: cell-based, Staphylococcus aureus; settings: Staphylococcus aureus, LMY47; for MIC: 18 h, read-out: MIC; for MBC: read-out: MBC
Experimental: as §3
as §2, with “h.” for “h. The MIC of the compounds was recorded as the lowest concentration at which no visible growth was observed.”

[12] = system: clinical S. aureus isolate LMY48; format: cell-based, Staphylococcus aureus; settings: Staphylococcus aureus, LMY48; for MIC: 18 h, read-out: MIC; for MBC: read-out: MBC
Experimental: as §3
as §2, with “h.” for “h. The MIC of the compounds was recorded as the lowest concentration at which no visible growth was observed.”

Row | Compound | MIC [1] [µg/mL] | MIC [2] [µg/mL] | MIC [3] [µg/mL] | MIC [4] [µg/mL] | MIC [5] [µg/mL] | MIC [6] [µg/mL] | MIC [7] [µg/mL] | MIC [8] [µg/mL] | MIC [9] [µg/mL] | MIC [10] [µg/mL] | MIC [11] [µg/mL] | MBC [1] [µg/mL] | MBC [2] [µg/mL] | MBC [3] [µg/mL] | MBC [4] [µg/mL] | MBC [6] [µg/mL] | MBC [7] [µg/mL] | MBC [8] [µg/mL] | MBC [9] [µg/mL] | MBC [10] [µg/mL] | other results
1 | [H]/N=C(\N)NN=C1CCCc2cc(OCc3c(F)cccc3F)ccc21 [Compound 1F, (E)-2-(6-((2,6-difluorobenzyl)oxy)-3,4-dihydronaphthalen-1(2H)-ylidene)hydrazine-1-carboximidamide] | 8 (≈ 23.2 µM) | 4 (≈ 11.6 µM) | 32 (≈ 92.9 µM) | 16 (≈ 46.5 µM) | > 32 | 16 (≈ 46.5 µM) | 4 (≈ 11.6 µM) | 4 (≈ 11.6 µM) | 4 (≈ 11.6 µM) | 4 (≈ 11.6 µM) | 4 (≈ 11.6 µM) | 16 (≈ 46.5 µM) | 16 (≈ 46.5 µM) | 32 (≈ 92.9 µM) | 16 (≈ 46.5 µM) | 16 (≈ 46.5 µM) | 32 (≈ 92.9 µM) | 16 (≈ 46.5 µM) | 8 (≈ 23.2 µM) | > 32 | MBC [11]: 8 µg/mL (≈ 23.2 µM); MIC [12]: 4 µg/mL (≈ 11.6 µM); MBC [12]: 16 µg/mL (≈ 46.5 µM)
2 | [H]/N=C(\N)NN=C1CCCc2cc(OCc3ccc(F)c(F)c3)ccc21 [Compound 1H, (E)-2-(6-((3,4-difluorobenzyl)oxy)-3,4-dihydronaphthalen-1(2H)-ylidene)hydrazine-1-carboximidamide] | 4 (≈ 11.6 µM) | 2 (≈ 5.81 µM) | 16 (≈ 46.5 µM) | 8 (≈ 23.2 µM) | 32 (≈ 92.9 µM) | 4 (≈ 11.6 µM) | 2 (≈ 5.81 µM) | 2 (≈ 5.81 µM) | 2 (≈ 5.81 µM) | 2 (≈ 5.81 µM) | 2 (≈ 5.81 µM) | 16 (≈ 46.5 µM) | 8 (≈ 23.2 µM) | 32 (≈ 92.9 µM) | 8 (≈ 23.2 µM) | 16 (≈ 46.5 µM) | 32 (≈ 92.9 µM) | 8 (≈ 23.2 µM) | 4 (≈ 11.6 µM) | > 32 | MBC [5]: 32 µg/mL (≈ 92.9 µM); MBC [11]: 8 µg/mL (≈ 23.2 µM); MIC [12]: 2 µg/mL (≈ 5.81 µM); MBC [12]: 4 µg/mL (≈ 11.6 µM)
3 | [H]/N=C(\N)NN=C1CCCc2cc(OCc3cccc(C(F)(F)F)c3)ccc21 [Compound 1I, (E)-2-(6-((3-(trifluoromethyl)benzyl)oxy)-3,4-dihydronaphthalen-1(2H)-ylidene)hydrazine-1-carboximidamide] | 4 (≈ 10.6 µM) | 2 (≈ 5.31 µM) | 32 (≈ 85 µM) | 8 (≈ 21.3 µM) | 32 (≈ 85 µM) | 4 (≈ 10.6 µM) | 2 (≈ 5.31 µM) | 2 (≈ 5.31 µM) | 1 (≈ 2.66 µM) | 2 (≈ 5.31 µM) | 2 (≈ 5.31 µM) | 8 (≈ 21.3 µM) | 16 (≈ 42.5 µM) | 32 (≈ 85 µM) | 8 (≈ 21.3 µM) | 4 (≈ 10.6 µM) | 16 (≈ 42.5 µM) | 4 (≈ 10.6 µM) | 4 (≈ 10.6 µM) | 4 (≈ 10.6 µM) | MBC [5]: 32 µg/mL (≈ 85 µM); MBC [11]: 2 µg/mL (≈ 5.31 µM); MIC [12]: 2 µg/mL (≈ 5.31 µM); MBC [12]: 2 µg/mL (≈ 5.31 µM)

Now from value to compound, other results behind:

Row | MIC [1] [µg/mL] | MIC [2] [µg/mL] | MIC [3] [µg/mL] | MIC [4] [µg/mL] | MIC [5] [µg/mL] | MIC [6] [µg/mL] | MIC [7] [µg/mL] | MIC [8] [µg/mL] | MIC [9] [µg/mL] | MIC [10] [µg/mL] | MIC [11] [µg/mL] | Compound | MBC [1] [µg/mL] | MBC [2] [µg/mL] | MBC [3] [µg/mL] | MBC [4] [µg/mL] | MBC [6] [µg/mL] | MBC [7] [µg/mL] | MBC [8] [µg/mL] | MBC [9] [µg/mL] | MBC [10] [µg/mL] | other results
4 | 4 (≈ 11.6 µM) | 2 (≈ 5.81 µM) | 32 (≈ 92.9 µM) | 8 (≈ 23.2 µM) | > 32 | 8 (≈ 23.2 µM) | 2 (≈ 5.81 µM) | 2 (≈ 5.81 µM) | 2 (≈ 5.81 µM) | 2 (≈ 5.81 µM) | 2 (≈ 5.81 µM) | [H]/N=C(\N)NN=C1CCCc2cc(OCc3cc(F)ccc3F)ccc21 [Compound 1E, (E)-2-(6-((2,5-difluorobenzyl)oxy)-3,4-dihydronaphthalen-1(2H)-ylidene)hydrazine-1-carboximidamide] | 16 (≈ 46.5 µM) | 16 (≈ 46.5 µM) | 32 (≈ 92.9 µM) | 8 (≈ 23.2 µM) | 8 (≈ 23.2 µM) | 32 (≈ 92.9 µM) | 8 (≈ 23.2 µM) | 4 (≈ 11.6 µM) | 8 (≈ 23.2 µM) | MBC [11]: 8 µg/mL (≈ 23.2 µM); MIC [12]: 2 µg/mL (≈ 5.81 µM); MBC [12]: 2 µg/mL (≈ 5.81 µM)
5 | 4 (≈ 11.6 µM) | 2 (≈ 5.81 µM) | 16 (≈ 46.5 µM) | 8 (≈ 23.2 µM) | 32 (≈ 92.9 µM) | 8 (≈ 23.2 µM) | 2 (≈ 5.81 µM) | 2 (≈ 5.81 µM) | 2 (≈ 5.81 µM) | 2 (≈ 5.81 µM) | 2 (≈ 5.81 µM) | [H]/N=C(\N)NN=C1CCCc2cc(OCc3cc(F)cc(F)c3)ccc21 [Compound 1G, (E)-2-(6-((3,5-difluorobenzyl)oxy)-3,4-dihydronaphthalen-1(2H)-ylidene)hydrazine-1-carboximidamide] | 8 (≈ 23.2 µM) | 8 (≈ 23.2 µM) | 16 (≈ 46.5 µM) | 8 (≈ 23.2 µM) | 16 (≈ 46.5 µM) | 16 (≈ 46.5 µM) | 16 (≈ 46.5 µM) | 4 (≈ 11.6 µM) | 8 (≈ 23.2 µM) | MBC [11]: 8 µg/mL (≈ 23.2 µM); MIC [12]: 2 µg/mL (≈ 5.81 µM); MBC [12]: 2 µg/mL (≈ 5.81 µM)
